From ChEMBL document CHEMBL2439965, “Dialkylimidazole inhibitors of Trypanosoma cruzi sterol 14α-demethylase as anti-Chagas disease agents” (Bioorg Med Chem Lett, 2013)
Each block holds one compound with its values, some of them ahead of it.

Assays:
physchem = settings: octanol/water
Description: Lipophilicity, log P of the compound

Trypanosoma cruzi = assay: microbe, parasite or virus in culture; settings: Tulahuen, NIH3T3, 168 h
Description: Antitrypanosomal activity against Trypanosoma cruzi Tulahuen infected in 3T3 cells after 7 days by beta-galactosidase assay

[1] = Cytotoxicity against human CRL8155 cells; type: cell-based

SMILES: Fc1ccc(Cn2cncc2CNc2ccc(F)c(F)c2)c(F)c1
logP (physchem): 3.5
EC50 (Trypanosoma cruzi): 212 nM

SMILES: Fc1ccc(NCc2cncn2Cc2ccc(-c3ccccc3)cc2F)cc1Cl
logP (physchem): 5.4
EC50 (Trypanosoma cruzi): 49 nM

SMILES: Clc1ccc(NCc2cncn2Cc2cccc3cc[nH]c23)cc1-c1ccccc1
logP (physchem): 5.2
EC50 (Trypanosoma cruzi): 333 nM

SMILES: Oc1ccccc1-c1ccc(Cn2cncc2CNc2ccc(-c3nc4ccccc4s3)c(-c3ccccc3)c2)cc1
logP (physchem): 8.1
EC50 (Trypanosoma cruzi): 123 nM

SMILES: Fc1ccc(NCc2cncn2Cc2cccc3cc[nH]c23)cc1-c1ccccc1
logP (physchem): 4.8
EC50 (Trypanosoma cruzi): 333 nM

SMILES: Cc1cc(NCc2cncn2Cc2ccc(F)cc2F)ccc1F
logP (physchem): 3.8
EC50 (Trypanosoma cruzi): 272 nM

SMILES: CC1CCN(CCOc2ccc(NCc3cncn3Cc3ccc(-c4ccccc4)cc3)cc2-c2ccccc2)CC1
IC50 [1]: 4470 nM
logP (physchem): 5.9
EC50 (Trypanosoma cruzi): 97.4 nM

SMILES: c1ccc(-c2ccc(Cn3cncc3CNc3ccc(OCCN4CCOCC4)c(-c4ccccc4)c3)cc2)cc1
logP (physchem): 5.9
EC50 (Trypanosoma cruzi): 35.2 nM

SMILES: Cc1ncc(CNc2ccc(F)cc2)n1Cc1ccc(-c2ccccc2)cc1N
logP (physchem): 4
EC50 (Trypanosoma cruzi): > 1000 nM

SMILES: Cc1ccc(-c2ccc(Cn3cncc3CNc3ccc(-c4nc5ccccc5s4)c(-c4ccccc4)c3)cc2)cc1
logP (physchem): 8.9
EC50 (Trypanosoma cruzi): 50 nM

SMILES: Nc1cc(-c2ccccc2)ccc1Cn1cncc1CNc1ccc(Cl)c(-c2ccccc2N2CCCC2)c1
logP (physchem): 6.5
EC50 (Trypanosoma cruzi): 87 nM

SMILES: Cc1ncc(CNc2ccc(F)c(Cl)c2)n1Cc1ccc(-c2ccccc2)cc1N
logP (physchem): 4.6
EC50 (Trypanosoma cruzi): > 1000 nM

SMILES: CCN1CCC(Cn2cncc2CNc2ccc(Cl)c(-c3ccccc3)c2)CC1
IC50 [1]: 17400 nM
logP (physchem): 4.3
EC50 (Trypanosoma cruzi): > 1000 nM

SMILES: Cc1cc(NCc2cnc(C)n2Cc2ccc(-c3ccccc3)cc2N)ccc1F
logP (physchem): 4.5
EC50 (Trypanosoma cruzi): > 1000 nM

SMILES: Clc1ccc(NCc2cncn2Cc2ccc(-c3ccccc3)cc2Cl)cc1
logP (physchem): 5.7
EC50 (Trypanosoma cruzi): 83.2 nM

SMILES: Clc1ccc(NCc2cncn2CC2CCNCC2)cc1-c1ccccc1
logP (physchem): 3.5
EC50 (Trypanosoma cruzi): > 1000 nM

SMILES: Nc1ccccc1-c1ccc(Cn2cncc2CNc2ccc(-c3nc4ccccc4s3)c(-c3ccccc3)c2)cc1
logP (physchem): 7.6
EC50 (Trypanosoma cruzi): 75.4 nM

SMILES: COc1ccc(NCc2cncn2Cc2ccccc2)nc1-c1ccccc1
logP (physchem): 4.2
EC50 (Trypanosoma cruzi): 686 nM

SMILES: Fc1ccc(NCc2cncn2Cc2ccc(F)cc2F)cc1
logP (physchem): 3.3
EC50 (Trypanosoma cruzi): 354 nM

SMILES: Cc1cc(NCc2cncn2Cc2ccc(-c3ccccc3)cc2F)ccc1F
logP (physchem): 5.3
EC50 (Trypanosoma cruzi): 53 nM

SMILES: Fc1ccc(NCc2cncn2Cc2ccc(-c3ccccc3)cc2Cl)cc1F
logP (physchem): 5.4
EC50 (Trypanosoma cruzi): 38.1 nM

SMILES: Clc1ccc(-c2ccc(Cn3cncc3CNc3ccc(-c4nc5ccccc5s4)c(-c4ccccc4)c3)cc2)cc1
logP (physchem): 9
EC50 (Trypanosoma cruzi): 48.5 nM

SMILES: Cc1ncc(CNc2ccc(F)c(F)c2)n1Cc1ccc(-c2ccccc2)cc1N
logP (physchem): 4.1
EC50 (Trypanosoma cruzi): > 1000 nM

SMILES: Clc1ccc(NCc2cncn2Cc2ccc(-c3ccccc3)cc2)cc1N1CCCCC1
logP (physchem): 6.1
EC50 (Trypanosoma cruzi): 53.6 nM

SMILES: c1ccc(-c2ccc(Cn3cncc3CNc3ccc(OCCN4CCCCC4)c(-c4ccccc4)c3)cc2)cc1
logP (physchem): 6.9
EC50 (Trypanosoma cruzi): 317 nM

SMILES: Fc1ccc(NCc2cncn2Cc2ccc(-c3ccccc3)cc2F)cc1
logP (physchem): 4.8
EC50 (Trypanosoma cruzi): 70.2 nM

SMILES: CC[C@@H]([C@H](C)O)n1ncn(-c2ccc(N3CCN(c4ccc(OC[C@@H]5CO[C@@](Cn6cncn6)(c6ccc(F)cc6F)C5)cc4)CC3)cc2)c1=O [POSACONAZOLE]
EC50 (Trypanosoma cruzi): < 1 nM

SMILES: Nc1ccccc1Cn1cncc1CNc1ccc(F)c(-c2ccccc2)c1
logP (physchem): 3.8
EC50 (Trypanosoma cruzi): 233 nM

SMILES: Cc1ccc(NCc2cncn2Cc2ccc(-c3ccccc3)cc2)cc1-c1c(F)cccc1F
logP (physchem): 7
EC50 (Trypanosoma cruzi): 36.6 nM

SMILES: Fc1ccc(NCc2cncn2Cc2ccc(-c3ccccc3)cc2F)cc1F
logP (physchem): 5
EC50 (Trypanosoma cruzi): 46 nM

SMILES: O=C(O)c1cc(-c2ccccc2)ccc1Cn1cncc1CNc1ccc(-c2nc3ccccc3s2)c(-c2ccccc2)c1
logP (physchem): 7.2
EC50 (Trypanosoma cruzi): > 1000 nM

SMILES: c1ccc(-c2ccc(Cn3cncc3CNc3ccc(NCCN4CCOCC4)c(-c4ccccc4)c3)cc2)cc1
logP (physchem): 5.9
EC50 (Trypanosoma cruzi): 115 nM

SMILES: Nc1cc(N2CCOCC2)ccc1Cn1cncc1CNc1ccc(F)c(F)c1
logP (physchem): 2.2
EC50 (Trypanosoma cruzi): 358 nM

SMILES: Oc1cc(-c2ccccc2)ccc1Cn1cncc1CNc1ccc(-c2nc3ccccc3s2)c(-c2ccccc2)c1
logP (physchem): 8
EC50 (Trypanosoma cruzi): 89.3 nM

SMILES: Fc1ccc(NCc2cncn2Cc2ccc(-c3ccccc3)cc2Cl)cc1Cl
logP (physchem): 5.9
EC50 (Trypanosoma cruzi): 48.7 nM

SMILES: Clc1ccc(NCc2cncn2Cc2ccc(-c3ccccc3)cc2)cc1-c1cccnc1
logP (physchem): 5.6
EC50 (Trypanosoma cruzi): 64.8 nM

The remaining compounds from weak to strong by EC50 (Trypanosoma cruzi), led by results:

logP (physchem): 6.6
EC50 (Trypanosoma cruzi): 35.1 nM
SMILES: COc1cc(-c2ccccc2)ccc1Cn1cncc1CNc1ccc(Cl)c(-c2ccccc2)c1

logP (physchem): 8.2
EC50 (Trypanosoma cruzi): 32 nM
SMILES: N#Cc1ccc(-c2cc(NCc3cncn3Cc3ccc(-c4ccccc4)cc3)ccc2-c2nc3ccccc3s2)cc1

logP (physchem): 5.6
EC50 (Trypanosoma cruzi): 30.4 nM
SMILES: Clc1ccc(NCc2cncn2Cc2ccc(-c3ccccc3)cc2)cc1-n1cccc1

logP (physchem): 8.2
EC50 (Trypanosoma cruzi): 27.2 nM
SMILES: COc1cc(-c2ccccc2)ccc1Cn1cncc1CNc1ccc(-c2nc3ccccc3s2)c(-c2ccccc2)c1

logP (physchem): 5.6
EC50 (Trypanosoma cruzi): 27.2 nM
SMILES: Clc1ccc(NCc2cncn2Cc2ccc(-c3ccccc3)cc2)cc1-c1ccncc1

logP (physchem): 5.8
EC50 (Trypanosoma cruzi): 26 nM
SMILES: Cc1cc(NCc2cncn2Cc2ccc(-c3ccccc3)cc2Cl)ccc1F

logP (physchem): 5.9
EC50 (Trypanosoma cruzi): 24.5 nM
SMILES: Nc1cc(-c2ccccc2)ccc1Cn1cncc1CNc1ccc(Cl)c(-c2ccccc2N2CCOCC2)c1

logP (physchem): 7.4
EC50 (Trypanosoma cruzi): 21.2 nM
SMILES: c1ccc(-c2cc(NCc3cncn3Cc3ccc(-c4ccco4)cc3)ccc2-c2nc3ccccc3s2)cc1

logP (physchem): 4.7
EC50 (Trypanosoma cruzi): 20.8 nM
SMILES: Nc1cc(-c2ccccc2)ccc1Cn1cncc1CNc1ccc(Cl)c(-c2ccccc2N2CCCCC2)c1

logP (physchem): 8.4
EC50 (Trypanosoma cruzi): 20 nM
SMILES: c1ccc(-c2ccc(Cn3cncc3CNc3ccc(-c4nc5ccccc5s4)c(-c4ccccc4)c3)cc2)cc1

logP (physchem): 7.5
EC50 (Trypanosoma cruzi): 19.3 nM
SMILES: c1ccc(-c2cc(NCc3cncn3Cc3ccc(-c4ccccn4)cc3)ccc2-c2nc3ccccc3s2)cc1

logP (physchem): 4.7
EC50 (Trypanosoma cruzi): 14.5 nM
SMILES: COc1ccc(Cn2cncc2CNc2ccc(F)c(-c3ccccc3)c2)c(N)c1

logP (physchem): 4.5
EC50 (Trypanosoma cruzi): 12.8 nM
SMILES: Nc1cc(Cl)ccc1Cn1cncc1CNc1ccc(F)c(-c2ccccc2)c1

logP (physchem): 5.8
EC50 (Trypanosoma cruzi): 12.5 nM
SMILES: COc1ccc(NCc2cncn2Cc2ccc(-c3ccccc3)cc2)nc1-c1ccccc1

logP (physchem): 6.5
EC50 (Trypanosoma cruzi): 12 nM
SMILES: Fc1cc(-c2ccccc2)ccc1Cn1cncc1CNc1ccc(F)c(-c2ccccc2)c1

logP (physchem): 8.2
EC50 (Trypanosoma cruzi): 11.1 nM
SMILES: c1ccc(-c2cc(NCc3cncn3Cc3ccc(-c4cccs4)cc3)ccc2-c2nc3ccccc3s2)cc1

logP (physchem): 8.2
EC50 (Trypanosoma cruzi): 10 nM
SMILES: COc1ccc(-c2cc(NCc3cncn3Cc3ccc(-c4ccccc4)cc3)ccc2-c2nc3ccccc3s2)cc1

logP (physchem): 5
EC50 (Trypanosoma cruzi): 9 nM
SMILES: Nc1cc(-c2ccccc2)ccc1Cn1cncc1CNc1ccc(Cl)c(Cl)c1

logP (physchem): 8.9
EC50 (Trypanosoma cruzi): 5.4 nM
SMILES: Cc1cccc(-c2ccc(Cn3cncc3CNc3ccc(-c4nc5ccccc5s4)c(-c4ccccc4)c3)cc2)c1

logP (physchem): 4.8
EC50 (Trypanosoma cruzi): 3.8 nM
SMILES: Nc1cc(-c2ccccc2)ccc1Cn1cncc1CNc1ccc(Cl)c(-n2cccc2)c1

logP (physchem): 4
EC50 (Trypanosoma cruzi): 3.2 nM
SMILES: Nc1cc(-c2ccccc2)ccc1Cn1cncc1CNc1ccc(F)c(F)c1

logP (physchem): 4.3
EC50 (Trypanosoma cruzi): 2.1 nM
SMILES: Nc1cc(-c2ccccc2)ccc1Cn1cncc1CNc1ccc(Cl)cc1

logP (physchem): 7.6
EC50 (Trypanosoma cruzi): 1.6 nM
SMILES: Nc1ccc(-c2cc(NCc3cncn3Cc3ccc(-c4ccccc4)cc3)ccc2-c2nc3ccccc3s2)cc1
IC50 [1]: 27500 nM

EC50 (Trypanosoma cruzi): 1.5 nM
SMILES: Nc1cc(-c2ccccc2)ccc1Cn1cncc1CNc1ccc(OCCN2CCOCC2)c(-c2ccc(Cl)cc2)c1

EC50 (Trypanosoma cruzi): 1.4 nM
SMILES: Nc1cc(Cl)ccc1Cn1cncc1CNc1ccc(-c2nc3ccccc3s2)c(-c2ccccc2)c1

logP (physchem): 4.3
EC50 (Trypanosoma cruzi): 1.2 nM
SMILES: Nc1cc(-c2ccccc2)ccc1Cn1cncc1CNc1ccc(F)c(Cl)c1

logP (physchem): 3.8
EC50 (Trypanosoma cruzi): 1.1 nM
SMILES: Nc1cc(-c2ccccc2)ccc1Cn1cncc1CNc1ccc(F)cc1

logP (physchem): 7.6
EC50 (Trypanosoma cruzi): 1 nM
SMILES: Nc1cc(-c2ccccc2)ccc1Cn1cncc1CNc1ccc(-c2nc3ccccc3s2)c(-c2ccccc2)c1

logP (physchem): 5.8
EC50 (Trypanosoma cruzi): 0.4 nM
SMILES: Nc1cc(-c2ccccc2)ccc1Cn1cncc1CNc1ccc(F)c(-c2c(F)cccc2F)c1
